Experimental data taken from paper PMC10537280, “Chemo-/Regio-Selective Synthesis of Novel Functionalized Spiro[pyrrolidine-2,3′-oxindoles] under Microwave Irradiation and Their Anticancer Activity” (Molecules, 2023).
Where two headings read alike, the source gives them in different places.

Assays:
[1] = tested on: human lung A549 cancer cell lines; experiment: MTT cytotoxicity assay, lung cancer A549 cells; format: cell-based; conditions: for IC50: Homo sapiens, A549, MTT, 72 h, 0.19–100 μM, means of at least three independent experiments in duplicates, read-out: A549 Cells IC50
Description: (§1) Adenocarcinomic human alveolar basal epithelial (A549) and human hepatoma (HepG2) cancer cell lines, immortalized normal human liver (LO2), human bronchial epithelial (BEAS-2B cells were purchased from [NT], Manassas, VA, USA). […] Invitrogen, Waltham, MA, USA). All cells were incubated at 37 °C in a 5% humidified CO2 incubator). All test compounds were dissolved in DMSO at a final concentration of 50 mM and stored at -20 °C before use. Cytotoxicity was assessed by the MTT (5 mg/mL) assay, as described previously. Briefly, 5 × 10^3 cells per well were seeded in 96-well plates before drug treatments. […] Cells without drug treatment were used as controls. Subsequently, 10 μL of 5 mg/mL MTT solution was added to each well and incubated at 37 °C for 4 h, followed by the addition of 100 μL solubilization buffer (12 mM HCl in a solution of 10% SDS) and overnight incubation. The absorbance, A570 nm, was then determined in each well on the next day. The percentage of cell viability was calculated using the expression: % viability = Atreated/Acontrol × 100, and was given as cytotoxicity (Table 2 and Table 3; […]

[2] = tested on: immortalized liver LO2 normal cell lines; experiment: MTT cytotoxicity assay, normal liver LO2 cells; format: cell-based; conditions: Homo sapiens, L02; MTT, 72 h, 0.19–100 μM; normal liver cells; read-out: LO2 Cells IC50
Description: as §1

[3] = tested on: human HepG2 cancer cell lines; experiment: MTT cytotoxicity assay, liver cancer HepG2 cells; format: cell-based; conditions: for IC50: Homo sapiens, HepG2, 72 h, MTT, 72 h, 0.19–100 μM, means of at least three independent experiments in duplicates, read-out: HepG2 Cells IC50
Description: as §1

[4] = tested on: immortalized lung BEAS-2B normal cell lines; experiment: MTT cytotoxicity assay, normal lung BEAS-2B cells; format: cell-based; conditions: Homo sapiens, MTT, 72 h, 0.19–100 μM, normal lung cells, read-out: BEAS-2B Cells IC50
Description: as §1

[5] = tested on: human HepG2 cancer cell lines; conditions: paclitaxel reference value; ref [82]; read-out: HepG2 Cells IC50; cited from earlier work
[6] = tested on: immortalized lung BEAS-2B normal cell lines; set-up: method as in PMID 24063429; conditions: paclitaxel reference value; ref [80]; read-out: BEAS-2B Cells IC50; cited from earlier work
[7] = tested on: human lung A549 cancer cell lines; set-up: method as in PMID 24063429; conditions: paclitaxel reference value; ref [80]; read-out: A549 Cells IC50; cited from earlier work
[8] = tested on: immortalized liver LO2 normal cell lines; conditions: paclitaxel reference value; ref [82]; read-out: LO2 Cells IC50; cited from earlier work

COc1ccc(C2C([N+](=O)[O-])C(Cc3ccccc3)NC23C(=O)Nc2ccc(Br)cc23)cc1OCc1ccccc1 (stereo not drawn) [Compound 4g, 5′-benzyl-3′-(3-(benzyloxy)-4-methoxyphenyl)-5-bromo-4′-nitrospiro[indoline-3,2′-pyrrolidin]-2-one]
melting point: 155 to 157 °C | IC50 [1]: > 100 µM | IC50 [2]: > 100 µM | IC50 [3]: > 100 µM | IC50 [4]: > 100 µM

CC(=O)O[C@H]1C(=O)[C@@]2(C)[C@H]([C@H](OC(=O)c3ccccc3)[C@]3(O)C[C@H](OC(=O)[C@H](O)[C@@H](NC(=O)c4ccccc4)c4ccccc4)C(C)=C1C3(C)C)[C@]1(OC(C)=O)CO[C@@H]1C[C@@H]2O [Paclitaxel]
IC50 [5]: 0.19 ± 0.4 µM | IC50 [6]: 0.1 µM | IC50 [7]: 0.003 µM | IC50 [8]: < 0.1 µM

COc1ccc(OC)c(C2C([N+](=O)[O-])C(C(C)C)NC23C(=O)Nc2ccccc23)c1 (stereo not drawn) [Compound 4d, 3′-(2,5-dimethoxyphenyl)-5′-isopropyl-4′-nitrospiro[indoline-3,2′-pyrrolidin]-2-one]
melting point: 210 to 212 °C | IC50 [1]: > 100 µM | IC50 [2]: > 100 µM | IC50 [3]: > 100 µM | IC50 [4]: > 100 µM

COc1ccc(OC)c(C2C([N+](=O)[O-])C3CCCN3C23C(=O)Nc2ccc(Br)cc23)c1 (stereo not drawn) [Compound 4u, 5-bromo-2′-(2,5-dimethoxyphenyl)-1′-nitro-1′,2′,5′,6′,7′,7a′-hexahydrospiro[indoline-3,3′-pyrrolizin]-2-one]
melting point: 190 to 192 °C | IC50 [1]: > 100 µM | IC50 [2]: > 100 µM | IC50 [3]: > 100 µM | IC50 [4]: > 100 µM

COc1ccc(OC)c(C2C([N+](=O)[O-])C(C)NC23C(=O)Nc2ccccc23)c1 (stereo not drawn) [Compound 4b, 3′-(2,5-dimethoxyphenyl)-5′-methyl-4′-nitrospiro[indoline-3,2′-pyrrolidin]-2-one]
melting point: 150 to 152 °C | IC50 [1]: > 100 µM | IC50 [2]: > 100 µM | IC50 [3]: > 100 µM | IC50 [4]: > 100 µM

COc1ccc(C2C([N+](=O)[O-])C3CCCN3C23C(=O)Nc2ccccc23)cc1 (stereo not drawn) [Compound 4r, 2′-(4-methoxyphenyl)-1′-nitro-1′,2′,5′,6′,7′,7a′-hexahydrospiro[indoline-3,3′-pyrrolizin]-2-one]
melting point: 116 to 118 °C | IC50 [1]: > 100 µM | IC50 [2]: > 100 µM | IC50 [3]: > 100 µM | IC50 [4]: > 100 µM

COc1ccc(OC)c(C2C([N+](=O)[O-])C(CC(C)C)NC23C(=O)Nc2ccc(Br)cc23)c1 (stereo not drawn) [Compound 4c, 5-bromo-3′-(2,5-dimethoxyphenyl)-5′-isobutyl-4′-nitrospiro[indoline-3,2′-pyrrolidin]-2-one]
melting point: 142 to 144 °C | S.I. Selectivity index lung (IC50 normal cells/IC50 cancer cells) ([1]; BEAS-2B IC50 / A549 IC50): 0.96 | IC50 [1]: 35 µM | IC50 [2]: 37.6 µM | IC50 [3]: 60.3 µM | S.I. Selectivity index liver (IC50 normal cells/IC50 cancer cells) ([3]; LO2 IC50 / HepG2 IC50): 0.62 | IC50 [4]: 33.5 µM
